Like-named read-outs stand apart in the source and are kept apart here.
What was measured:
[1] = test system: 6 Hz seizure model; experiment: 6 Hz seizure model in mice; type: in vivo; details: 100 mg/kg i.p.
[2] = target: T1, human 5-HT2A receptor (Homo sapiens, UniProt P28223); experiment: Functional activity by Ca++-flux (intracellular calcium mobilization), 5-HT2A; type: cell-based; details: Ca++-flux, HEK-293 cells, NA = not active
T1 construct: expressed in transfected cells; host or cells: HEK-293
Method: The functional activity of the compounds for the human 5-HT2A, human 5-HT2B, and human 5-HT2C receptors is determined by measurement of Ca++-flux as detailed in the Examples, in transiently transfected HEK-293 cells and the results are summarized in Table I. Structures of compounds listed in Table I are given in Scheme 15.
(§1) The functional activity of compounds for the human 5-HT2A, human 5-HT2B, and human 5-HT2C receptors as agonists, partial agonists and antagonists is determined by measurement of Ca++-flux. The results are summarized in Table 1 where EC50 for different receptors are given (nM) and the ratio of activities 2A/2C and 2B/2C are also given. As noted above, other methods for assessing agonist/antagonist function of compounds for 5-HT2 family receptors are known in the art.
(§2) For these studies stably expressing lines of h5-HT2A, h5-HT2B, and h5-HT2C receptors are prepared in HEK-293 cells. For the h5-HT2A and h5-HT2C-INI receptors, stably expressing HEK-293 cell lines were constructed as previously described using a pIRES-NEO vector system (See: Rauser et al, J Pharmacol Exp Ther 299: 83-89, 2001).
(§3) Stable cell lines were plated with ˜40,000 cells/well into uncoated (3T3 cells) or poly-L-lysine coated (HEK293 cells) 96-well plates in DMEM supplemented with 5% dialyzed FBS. 16-24 hrs post-plating, the medium was aspirated and replaced with 30 μl/well of Calcium Assay Kit Component A Dye (Molecular Devices; Sunnyvale, Calif.) dissolved in 30 ml/bottle of assay buffer (2.5 mM probenecid, 20 mM Hepes, and 1× Hanks' Balanced Salt Solution (Invitrogen; Carlsbad, Calif.) (138 mM NaCl, 5.3 mM KCl, 1.3 mM CaCl2, 0.49 mM MgCl2, 0.41 mM MgSO4, 0.44 mM KH2PO4, 0.34 mM Na2HPO4) pH 7.4. Plates were incubated in the dye for 1 hr at 37° C. Dilutions were made in assay buffer as 2× stocks and added to 96-well drug plates. Fluorometric imaging was performed using a FlexStation II plate reader (Molecular Devices) reading the plate at 1.5 second intervals for 1 min. After establishing a fluorescent baseline (excitation at 485 nm and emission at 525 nm, using a […] cutoff), the FlexStation II automatically transferred 30 μl of 2× drug stocks from the drug plate to the cell plate at the 20 second time point with reading for another 40 seconds. Peak relative fluorescence units (RFU) were subtracted from baseline RFUs using SoftMax Pro (Molecular Devices) and values were imported into GraphPad Prism version 4.03 (GraphPad Software; San Diego, Calif.) for analysis. Ca++-flux studies are very convenient for initial screening of large numbers of compounds for agonist activity.
Compounds are resuspended in DMSO at a stock concentration of 2-15 mM and, for a typical agonist screen, are diluted in assay buffer to a final 2× concentration of 20 μM into drugs plates. Compounds are added in duplicate to cell plates using the FlexStation II as described to identify agonists, defined as having >10% of maximal 5-HT response. […] Generally, screens are performed twice with each determination being made in duplicate. Typical Z′-factor (Zhang et al., 1999) values for agonist screens ranged from 0.61-0.79 (5-HT2AR), 0.42-0.81 (5-HT2BR) and 0.38-0.72 (5-HT2CR); these Z′-factor values are adequate for screening studies in which N=2 determinations are made and the screens replicated for a total of N=4 determinations.
(§4) Compounds identified by primary screens to be agonists are subsequently used in concentration-response experiments to verify the initial observations and obtain agonist potencies. Concentration-response studies are performed in triplicate or quadruplicate at each concentration and repeated three times. Baseline-subtracted RFU values imported into GraphPad Prism are analyzed by non-linear regression to obtain pEC50 values, and normalized to maximal 5-HT response to obtain relative efficacies.

[3] = target: T2, human 5-HT2B receptor (Homo sapiens, UniProt P41595); experiment: Functional activity by Ca++-flux (intracellular calcium mobilization), 5-HT2B; type: cell-based; details: Ca++-flux, HEK-293 cells, NA = not active; for EC50: read-out: 5-HT2B human EC50
T2 construct: expressed in transfected cells; host or cells: HEK293 (ATCC CRL-1573), retroviral infection with pBabepuro-FLAG-h5-HT2BR, polyclonal line

[4] = target: T3, human 5-HT2C receptor (Homo sapiens, UniProt P28335); experiment: Functional activity by Ca++-flux (intracellular calcium mobilization), 5-HT2C; type: cell-based; details: for EC50: Ca++-flux, HEK-293 cells, NA = not active, read-out: 5-HT2C human EC50; for 2A/2C ratio: ratio of EC50 5-HT2A / 5-HT2C; for 2B/2C ratio: ratio of EC50 5-HT2B / 5-HT2C
T3 construct: expressed in transfected cells; host or cells: HEK-293
T3 sequence (P28335 33-458): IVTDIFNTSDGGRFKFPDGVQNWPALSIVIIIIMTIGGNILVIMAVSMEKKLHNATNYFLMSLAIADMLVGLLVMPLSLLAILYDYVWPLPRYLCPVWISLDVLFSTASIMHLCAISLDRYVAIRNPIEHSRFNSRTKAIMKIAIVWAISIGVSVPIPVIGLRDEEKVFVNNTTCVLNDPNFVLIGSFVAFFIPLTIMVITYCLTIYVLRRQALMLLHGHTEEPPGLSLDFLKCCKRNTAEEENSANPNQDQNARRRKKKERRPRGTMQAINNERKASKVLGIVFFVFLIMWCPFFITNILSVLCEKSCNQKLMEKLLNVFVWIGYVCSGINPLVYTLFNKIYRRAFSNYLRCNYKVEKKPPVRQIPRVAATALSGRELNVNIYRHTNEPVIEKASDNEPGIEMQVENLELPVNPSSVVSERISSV
Method: as §1, with “The results are summarized in Table 1 where EC50 for different receptors are given (nM) and the ratio of activities 2A/2C and 2B/2C are also given.” left out
as §2, §3
Compounds are resuspended in DMSO at a stock concentration of 2-15 mM and, for a typical agonist screen, are diluted in assay buffer to a final 2× concentration of 20 μM into drugs plates. Compounds are added in duplicate to cell plates using the FlexStation II as described to identify agonists, defined as having >10% of maximal 5-HT response. […] Generally, screens are performed twice with each determination being made in duplicate.
as §4

[5] = test system: MOA; details: in vivo in rats, tryptamine potentiation test; Kaiser / Zirkel 1962; cited from earlier work

T1 sequence (P28223 whole entry): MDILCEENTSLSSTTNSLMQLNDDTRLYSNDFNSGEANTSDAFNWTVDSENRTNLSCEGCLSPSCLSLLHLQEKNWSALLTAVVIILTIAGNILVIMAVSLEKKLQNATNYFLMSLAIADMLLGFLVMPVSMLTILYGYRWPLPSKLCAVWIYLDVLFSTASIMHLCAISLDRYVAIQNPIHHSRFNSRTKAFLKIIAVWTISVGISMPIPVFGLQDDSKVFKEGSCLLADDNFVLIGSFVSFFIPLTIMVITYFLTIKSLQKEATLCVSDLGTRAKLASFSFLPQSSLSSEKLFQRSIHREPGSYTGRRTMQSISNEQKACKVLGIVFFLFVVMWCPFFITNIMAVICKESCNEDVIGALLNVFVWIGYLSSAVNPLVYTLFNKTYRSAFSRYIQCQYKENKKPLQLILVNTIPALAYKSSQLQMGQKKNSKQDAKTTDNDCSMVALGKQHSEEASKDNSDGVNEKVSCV
T2 sequence (P41595 whole entry): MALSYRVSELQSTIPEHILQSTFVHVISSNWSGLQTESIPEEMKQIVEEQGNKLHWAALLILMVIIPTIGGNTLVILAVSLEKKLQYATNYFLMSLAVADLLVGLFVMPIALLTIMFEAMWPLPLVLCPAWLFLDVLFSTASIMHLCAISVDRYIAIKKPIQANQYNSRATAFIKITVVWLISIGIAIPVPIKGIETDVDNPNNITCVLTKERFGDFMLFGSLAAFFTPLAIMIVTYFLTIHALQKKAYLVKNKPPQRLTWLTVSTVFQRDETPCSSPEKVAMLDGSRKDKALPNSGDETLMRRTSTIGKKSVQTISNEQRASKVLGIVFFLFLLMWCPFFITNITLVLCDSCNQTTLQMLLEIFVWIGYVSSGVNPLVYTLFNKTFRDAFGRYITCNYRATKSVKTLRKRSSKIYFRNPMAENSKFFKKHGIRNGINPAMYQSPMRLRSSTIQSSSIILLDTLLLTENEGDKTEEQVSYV

Substance | EC50 [2] | EC50 [3] | EC50 [4] | 2A/2C ratio [4] | 2B/2C ratio [4] | also measured
trans-(±)-(2-Phenyl-cyclopropyl)-methylamine Hydrochloride [TKU-II-17] | – | – | – | – | – | motor impairment ([1]; 15-60 minutes after dosing): minimal motor impairment; animals protected from seizure ([1]; after four hours): three of the four; EC50 ([2]; Hydrochloride): 0.0497 µM; EC50 ([3]; Hydrochloride): 0.0186 µM; EC50 ([4]; Hydrochloride): 0.0096 µM; 2A/2C ratio ([4]; Hydrochloride): 5.18; 2B/2C ratio ([4]; Hydrochloride): 1.94
trans-(±)-[2-(4′-Fluoro-biphenyl-4-yl)-cyclopropyl]-methylamine Hydrochloride [TKU-II-57] | 1030 µM | 624 µM | 10.2 µM | 101.1 | 61 | –
trans-(±)-[2-(4′-Trifluoromethyl-biphenyl-2-yl)-cyclopropyl]-methylamine Hydrochloride [TKU-II-120] | – | – | 0.0101 µM | – | – | 5-HT2A human EC50 [2]: Not; 5-HT2B human EC50 [3]: Not
trans-(±)-[2-(4′-Trifluoromethyl-biphenyl-4-yl)-cyclopropyl]-methylamine Hydrochloride [TKU-II-58] | 3.41 µM | 1.27 µM | 0.226 µM | 15.1 | 5.62 | –
trans-(−)-(2-Phenyl-cyclopropyl)-methylamine Hydrochloride [TKU-II-115] | 1.69 µM | 1.54 µM | 0.28 µM | 6.02 | 5.49 | –
trans-(−)-[2-(3-Bromo-phenyl)-cyclopropyl]-methylamine Hydrochloride [TKU-II-153-2] | 2.27 µM | 0.251 µM | 0.307 µM | 7.4 | 0.82 | –
trans-aminomethyl-2-phenylcyclopropylamine | – | – | – | – | – | inhibition of MOA [5]: not to inhibit MOA

— patent US20090203750A1, “5-HT2C Receptor Agonists as Anorectic Agents” (priority 2005, published 2009)
